Where no end group is shown, it is not given here.
Legend:
human 20S proteasome [1] = target: T1, human 20S proteasome (Homo sapiens, UniProt P25788); assay: Ki determinations, non-competitive kinetics with Suc-LLVY-AMC; format: biochemical; settings: for Ki relative to PR11: comparison of Table III values
20S proteasome = settings: cited from earlier work
human 20S proteasome [2] = target: T1, human 20S proteasome; assay: Inhibition of chymotrypsin-like activity of 20S proteasome by PR-peptides; format: biochemical; settings: same experiment as I50; n of Eq. 1

Sequence | Ki (human 20S proteasome [1]) [nM] | Ki relative to PR11 (human 20S proteasome [1]) | further results
RRRPRPPALPRW [Peptide A8W12] | 50.7 | nearly half of PR11 | 
RRRPRPPFLPRW [Peptide F8W12] | 184 | about two-fold greater than that of PR11 | 
RRRPRPPY [PR8] |  |  | Inhibition of 20S proteasome (20S proteasome): does not inhibit 20S proteasome
RRRPRPPYLPR [PR11] | 86.5 |  | 
RRRPRPPYLPRPRPPPFFPPRLPPRIPPGFPPRFPPRFP [PR39] |  |  | N (fractional occupation of PR-peptide on 20S proteasome, derived from curve-fitting) (human 20S proteasome [2]): 1.232
RRRPRPPYLPRW [Peptide W12] | 39.5 |  | 

Source: publication PMC2632303 (Journal of molecular biology, 2008)
